From ChEMBL document CHEMBL1127894, “The synthesis of 2,2,24- trisubstituted oxetanes as new azole antifungal agents” (1994)
≈ marks a conversion by molar mass, not a printed value. Calls of active or inactive are those of the source. No cut-off for these calls is given here.

Assays:
[1] = test system: Candida albicans; assay: In vitro inhibition of yeast to mycelial transformation against Candida stellatoidea at concentration of <0.03 ug/mL at pH 7.0; Active; format: functional, organism-based
[2] = test system: Candida albicans; assay: In vitro inhibition of yeast to mycelial transformation against Candida albicans C-43 at concentration of <0.03 ug/mL at pH 7.0; Active; format: functional, organism-based
[3] = test system: Candida albicans; assay: In vitro inhibition of yeast to mycelial transformation against six strains of Candida albicans at concentration of <0.03 ug/mL at pH 7.0; Active; format: functional, organism-based
[4] = test system: Mus musculus; assay: Compound was tested for percent survival against Candida albicans C-43 at 50 mg/kg (iv) in mice; format: functional
[5] = test system: Candida albicans; assay: Tested for inhibition of yeast to mycelial transformation against Candida stellatoidea at concentration of <0.03 ug/mL at pH 7.0; Active; format: functional, organism-based
[6] = test system: Mus musculus; assay: Compound was tested for in vivo activity against Candida albicans C-43 in mice at dose of 10 mg/kg; Inactive; format: functional, organism-based; design: dose 10 mg/kg
[7] = test system: Candida albicans; assay: Tested for inhibition of yeast to mycelial transformation against Candida albicans C-43 at concentration of <0.03 ug/mL at pH 7.0; Active; format: functional, organism-based
[8] = test system: Candida parapsilosis; assay: Minimum inhibitory concentration against two strains of Candida parapsilosis; format: functional; details: Lodderomyces parapsilosis
[9] = test system: Candida albicans; assay: Tested for inhibition of yeast to mycelial transformation against six strains of Candida albicans at concentration of <0.03 ug/mL at pH 7.0; Active; format: functional, organism-based
[10] = test system: Mus musculus; assay: Compound was tested for in vivo activity against Candida albicans C-43 in mice; format: functional
[11] = test system: Mus musculus; assay: Geometri mean CFUs(log 10) for Candida albicans infected mice treated with 50 mg/kg of compound; format: functional
[12] = test system: Mus musculus; assay: Compound was tested for in vivo activity against 1x 10ex6 CFU of Candida albicans C-43 infected mice at dose of 10 mg/kg; Inactive; format: functional, organism-based; design: dose 10 mg/kg
[13] = test system: Candida albicans; assay: Tested for inhibition of yaest to mycelial transformation against Candida albicans C-43 at concentration of <0.03 ug/mL at pH 7.0; Active; format: functional, organism-based
[14] = test system: Candida parapsilosis; assay: Minimum inhibitory concentration against two strains of C. parapsilosis; Inactive; format: functional, organism-based
[15] = test system: Candida albicans; assay: Tested for inhibition of yeast to mycelial transformation against six strains of Candida albicans at concentration of 16->64 ug/mL at pH 7.0; Slightly active; format: functional, organism-based
[16] = test system: Candida albicans; assay: Tested for inhibition of yeast to mycelial transformation against Candida albicans C-43 at concentration of 16->64 ug/mL at pH 7.0; Slightly active; format: functional, organism-based
[17] = test system: Candida albicans; assay: Tested for inhibition of yeast to mycelial transformation against Candida stellatoidea at concentration of 16->64 ug/mL at pH 7.0; Slightly active; format: functional, organism-based

For CC(C)N1CCN(c2ccc(OC[C@@H]3C[C@@](Cn4cncn4)(c4ccc(Cl)cc4Cl)O3)cc2)CC1 (racemic) [listing 1 of 2 here], the Activity [1] was “Active”, the Activity [2] was “Active” and the Activity [3] was “Active”.

With CC(C)N1CCN(c2ccc(OC[C@@H](O)C[C@@](O)(Cn3cncn3)c3ccc(Cl)cc3Cl)cc2)CC1 the survival at 50 mg/kg [4] was 100%, the Activity [5] was “Active” and the Activity [6] was “inactive”. The Activity [7] was “Active”, the MIC [8] was 32 µg/mL (≈ 59.9 µM) and the Activity [9] was “Active”. For the same molecule, the Activity [10] was 4.4.

CC(C)N1CCN(c2ccc(OC[C@H]3CC[C@](Cn4cncn4)(c4ccc(Cl)cc4Cl)O3)cc2)CC1 was tested, and the Activity [11] was 4.3, the survival at 50 mg/kg [4] was 100% and the Activity [5] was “Active”. The Activity [7] was “Active”, the MIC [8] was 0.5 µg/mL (≈ 0.943 µM) and the Activity [9] was “Active”. For the same molecule, the Activity [12] was “inactive”.

In the case of CC(C)N1CCN(c2ccc(OC[C@H](O)C[C@@](O)(Cn3cncn3)c3ccc(Cl)cc3Cl)cc2)CC1, the Activity [13] is reported as “Active”, the survival at 50 mg/kg [4] is reported as 100% and the Activity [5] is reported as “Active”. The Activity [6] was “inactive”, the MIC [8] was 32 µg/mL (≈ 59.9 µM) and the Activity [9] was “Active”. The Activity [10] was 4.2.

For CC(C)N1CCN(c2ccc(OC[C@H]3C[C@@](Cn4cncn4)(c4ccc(Cl)cc4Cl)O3)cc2)CC1 (relative stereo), the Activity [12] was “inactive”.

CC(C)N1CCN(c2ccc(OC[C@@H]3C[C@@](Cn4cncn4)(c4ccc(Cl)cc4Cl)O3)cc2)CC1 (racemic) [listing 2 of 2 here] gave an MIC [8] of 32 µg/mL (≈ 62 µM).

For CC(C)N1CCN(c2ccc(OC[C@H]3C[C@@](Cn4cncn4)(c4ccc(Cl)cc4Cl)O3)cc2)CC1 (racemic), the MIC [14] was “inactive”, the Activity [15] was “Weak activity” and the Activity [16] was “Weak activity”. For the same molecule, the Activity [17] was “Weak activity”.

In the case of CC(C)N1CCN(c2ccc(OC[C@@H]3C[C@@](Cn4cncn4)(c4ccc(Cl)cc4Cl)O3)cc2)CC1 (relative stereo), the Activity [12] is reported as “inactive”.
